Measured values: patent US20040097573A1, “Use of a COX-2 inhibitor and a NK-1 receptor antagonist for treating inflammation” (priority 1998, published 2004)

Key:
[1] = system: foot tapping in gerbils induced by central infusion of NK-1 receptor agonists such as GR73632; experiment: Gerbil foot-tapping (Assay 2); format: in vivo, Mongolian gerbils; conditions: i.v.
Excerpt: ASSAY 2: Gerbil Foot-Tapping
CNS-penetrant NK-1 receptor antagonists for use in the present invention can be identified by their ability to inhibit foot tapping in gerbils induced by central infusion of NK-1 receptor agonists such as GR73632, based on the method of Rupniak & Williams, Eur. J. Pharmacol., 1994, 265, 179.
Male or female Mongolian gerbils (35-70 g) are anaesthetised by inhalation of an isoflurane/oxygen mixture to permit exposure of the jugular vein in order to permit administration of test compounds or vehicle in an injection volume of approximately 5 ml/kg i.v. Alternatively, test compounds may be administered orally or by subcutaneous or intraperitoneal routes. A skin incision is then made in the midline of the scalp to expose the skull. The selective NK-1 receptor agonist (e.g. GR73632 (d Ala[L-Pro^9,Me-Leu^10]-substance P-(7-11)) is infused directly into the cerebral ventricles (e.g. 3 pmol in 5 μl i.c.v., depending on test substance) by vertical insertion of a cuffed 27 gauge needle to a depth of 4.5 mm below bregma. The scalp incision is closed and the animal allowed to recover from anaesthesia in a clear perspex observation box (approximately 25 cm×20 cm×20 cm). The duration and/or intensity of hind foot tapping is then recorded continuously for approximately 5 minutes.

[2] = system: cisplatin-induced emesis in ferrets; experiment: Ferret emesis (Assay 3); format: in vivo; conditions: p.o.
Experimental: ASSAY 3: Ferret Emesis Individually housed male ferrets (1.0-2.5 kg) are dosed orally by gavage with test compound. Ten minutes later they are fed with approximately 100 g of tinned cat food. At 60 minutes following oral dosing, cisplatin (10 mg/kg) is given i.v. via a jugular vein catheter inserted under a brief period of halothane anaesthesia. The catheter is then removed, the jugular vein ligated and the skin incision closed. The ferrets recover rapidly from the anaesthetic and are mobile within 10-20 minutes. The animals are observed continuously during recovery from the anaesthetic and for 4 hours following the cisplatin injection, after which time the animals are killed humanely. The numbers of retches and vomits occurring during the 4 hours after cisplatin administration are recorded by trained observers.

Row | SMILES | gerbil foot-tapping (5 mins.) ID50 [1] | gerbil foot-tapping (24 hrs.) ID50 [1] | ferret emesis ID90 [2]
1 | C[C@@H](O[C@H]1OCCN(Cc2nn[nH]c2CN(C)C)[C@H]1c1ccccc1)c1cc(C(F)(F)F)cc(C(F)(F)F)c1 [2-(R)-(1-(R)-(3,5-bis(trifluoromethyl)phenyl)ethoxy)-4-(5-(N,N-dimethylamino)methyl-1,2,3-triazol-4-yl)methyl-3-(S)-phenylmorpholine] | ID50 = 0.12 mg/kg i.v. | ID50 = 0.17 mg/kg i.v. | –
2 | C[C@@H](O[C@H]1OCCN(Cc2n[nH]c(=O)[nH]2)[C@H]1c1ccc(F)cc1)c1cc(C(F)(F)F)cc(C(F)(F)F)c1 [2-(R)-(1-(R)-(3,5-bis(trifluoromethyl)phenyl)-ethoxy)-3-(S)-(4-fluorophenyl)-4-(3-(5-oxo-1H,4H-1,2,4-triazolo)methyl)-morpholine] | ID50 = 0.36 mg/kg i.v. | ID50 = 0.33 mg/kg i.v. | ID90 < 3 mg/kg p.o.
